According to US20200131196A1 (Mount Tam Therapeutics, Inc., priority 2017, published 2020):
Like-named read-outs stand apart in the source and are kept apart here.

How the values were obtained:
TF-1 = assay: OncoPanel cell proliferation assay, TF-1; type: cell-based, human
Experimental: (§1) Cells were grown in RPMI 1640, 10% FBS, 2 mM L-alanyl-L-glutamine, 1 mM Na pyruvate, or a special medium. Cells were seeded into 384-well plates and incubated in a humidified atmosphere of 5% CO2 at 37° C. Compounds were added the day following cell seeding. At the same time, a time zero untreated cell plate was generated. After a 3-day incubation period, cells were fixed and stained to allow fluorescence imaging of nuclei. Compounds (1 mM stock solutions) were serially diluted in half-log steps from the highest test concentration ([…]), and assayed over 10 concentrations with a maximum assay concentration of 0.1% DMSO. Automated fluorescence microscopy was carried out using a Molecular Devices ImageXpress Micro XL high-content imager, and images were collected with a 4× objective. 16-bit TIFF images were acquired and analyzed with MetaXpress 5.1.0.41 software.
(§2) Cell proliferation was measured by the fluorescence intensity of an incorporated nuclear dye. The output is referred to as the relative cell count, where the measured nuclear intensity is transformed to percent of control (POC) using the following formula: […]
(§3) Cellular response parameters were calculated using nonlinear regression to a sigmoidal single-site dose response model:
(§4) EC50 is the test compound concentration at the curve inflection point or half the effective response (parameter C of the fitted curve solution). GI50 is the concentration needed to reduce the observed growth by half (midway between the curve maximum and the time zero value). “Cell Count Activity Area” is an estimate of the integrated area above the curve (Barretina, et al. The Cancer Cell Line Encyclopedia enables predictive modelling of anticancer drug sensitivity. Nature 483: 603-607). […] In rare instances, values <0 or >10 may be observed. […] Curve-fitting, calculations, and report generation was performed using a custom data reduction engine and MathIQ based software (AIM).

NCIH446 = assay: OncoPanel cell proliferation assay, NCIH446; type: cell-based, human
Experimental: as §1, §2, §3, §4

SNU-5 = assay: OncoPanel cell proliferation assay, SNU-5; type: cell-based, human
Experimental: as §1, with “Cells” for “Cells were grown in RPMI 1640, 10% FBS, 2 mM L-alanyl-L-glutamine, 1 mM Na pyruvate, or a special medium. Cells”
as §2, §3
GI50 is the concentration needed to reduce the observed growth by half (midway between the curve maximum and the time zero value). […] In rare instances, values <0 or >10 may be observed. […] Curve-fitting, calculations, and report generation was performed using a custom data reduction engine and MathIQ based software (AIM).

CAMA-1 = assay: OncoPanel cell proliferation assay, CAMA-1
Experimental: (§5) Cells were seeded into 384-well plates and incubated in a humidified atmosphere of 5% CO2 at 37° C. Compounds were added the day following cell seeding. At the same time, a time zero untreated cell plate was generated. After a 3-day incubation period, cells were fixed and stained to allow fluorescence imaging of nuclei. Compounds (1 mM stock solutions) were serially diluted in half-log steps from the highest test concentration (1 micromol), and assayed over 10 concentrations with a maximum assay concentration of 0.1% DMSO. Automated fluorescence microscopy was carried out using a Molecular Devices ImageXpress Micro XL high-content imager, and images were collected with a 4× objective. 16-bit TIFF images were acquired and analyzed with MetaXpress 5.1.0.41 software.

SCaBER = assay: OncoPanel cell proliferation assay, SCaBER; type: cell-based, human
Experimental: as §1, §2, §3, §4

PC-3 = assay: OncoPanel cell proliferation assay, PC-3
Experimental: as §5

[1] = Homo sapiens, read-out: Cell Count EC50
[2] = Homo sapiens, read-out: Cell Count GI50
[3] = Homo sapiens, read-out: Cell Count IC50

CO[C@H]1C[C@@H]2CC[C@@H](C)[C@@](O)(O2)C(=O)C(=O)N2CCCC[C@H]2C(=O)O[C@H]([C@H](C)C[C@H]2C[C@H]3C[C@@H]2C[C@@H]3O)CC(=O)[C@H](C)/C=C(\C)[C@@H](O)[C@@H](OC)C(=O)[C@H](C)C[C@H](C)/C=C/C=C/C=C/1C [Formula II, C37-[(1R,2S,4R,5S)-5-hyhroxybicyclo[2.2.1]heptane] rapamycin]
Cell Count Activity Area (TF-1): 1.08
Relative cell count (%) Mean (TF-1; 1.00E+00 microM): 80.8%
Relative cell count (%) Mean (TF-1; 1.00E-01 microM): 80.1%
Relative cell count (%) Mean (TF-1; 1.00E-02 microM): 82.8%
Relative cell count (%) Mean (TF-1; 1.00E-03 microM): 88.7%
Relative cell count (%) Mean (TF-1; 1.01E-04 microM): 93.1%
Relative cell count (%) Mean (TF-1; 3.16E-01 microM): 79.6%
Relative cell count (%) Mean (TF-1; 3.17E-02 microM): 81.7%
Relative cell count (%) Mean (TF-1; 3.17E-03 microM): 80.8%
Relative cell count (%) Mean (TF-1; 3.18E-04 microM): 89.0%
Relative cell count (%) Mean (TF-1; 3.18E-05 microM): 94.4%
EC50 (TF-1; [1]): > 1000 nM
GI50 (TF-1; [2]): > 1000 nM
IC50 (TF-1; [3]): > 1000 nM
Cell Count Activity Area (NCIH446): 1.23
Relative cell count (%) Mean (NCIH446; 1.00E+00 microM): 80.9%
Relative cell count (%) Mean (NCIH446; 1.00E-01 microM): 83.6%
Relative cell count (%) Mean (NCIH446; 1.00E-02 microM): 83.2%
Relative cell count (%) Mean (NCIH446; 1.00E-03 microM): 93.7%
Relative cell count (%) Mean (NCIH446; 1.01E-04 microM): 102.5%
Relative cell count (%) Mean (NCIH446; 3.16E-01 microM): 74.9%
Relative cell count (%) Mean (NCIH446; 3.17E-02 microM): 83.3%
Relative cell count (%) Mean (NCIH446; 3.17E-03 microM): 85.8%
Relative cell count (%) Mean (NCIH446; 3.18E-04 microM): 87.3%
Relative cell count (%) Mean (NCIH446; 3.18E-05 microM): 94.2%
EC50 (NCIH446; Homo sapiens, NCI-H446, read-out: Cell Count EC50): > 1000 nM
GI50 (NCIH446; Homo sapiens, NCI-H446, read-out: Cell Count GI50): > 1000 nM
IC50 (NCIH446; Homo sapiens, NCI-H446, read-out: Cell Count IC50): > 1000 nM
Cell Count Activity Area (SNU-5): 1.85
Relative cell count (%) Mean (SNU-5; 1.00E+00 microM): 67.1%
Relative cell count (%) Mean (SNU-5; 1.00E-01 microM): 71.9%
Relative cell count (%) Mean (SNU-5; 1.00E-02 microM): 82.9%
Relative cell count (%) Mean (SNU-5; 1.00E-03 microM): 95.6%
Relative cell count (%) Mean (SNU-5; 1.01E-04 microM): 101.2%
Relative cell count (%) Mean (SNU-5; 3.16E-01 microM): 70.4%
Relative cell count (%) Mean (SNU-5; 3.17E-02 microM): 76.3%
Relative cell count (%) Mean (SNU-5; 3.17E-03 microM): 84.9%
Relative cell count (%) Mean (SNU-5; 3.18E-04 microM): 95.6%
Relative cell count (%) Mean (SNU-5; 3.18E-05 microM): 101.0%
EC50 (SNU-5; [1]): 5.57 nM
GI50 (SNU-5; [2]): 168 nM
IC50 (SNU-5; [3]): > 1000 nM
Cell Count Activity Area (CAMA-1; CAMA-1): 4.22
Relative cell count (%) Mean (CAMA-1; CAMA-1, 1.00E+00 microM): 42.0%
Relative cell count (%) Mean (CAMA-1; CAMA-1, 1.00E-01 microM): 45.4%
Relative cell count (%) Mean (CAMA-1; CAMA-1, 1.00E-02 microM): 54.6%
Relative cell count (%) Mean (CAMA-1; CAMA-1, 1.00E-03 microM): 64.5%
Relative cell count (%) Mean (CAMA-1; CAMA-1, 1.01E-04 microM): 98.0%
Relative cell count (%) Mean (CAMA-1; CAMA-1, 3.16E-01 microM): 43.0%
Relative cell count (%) Mean (CAMA-1; CAMA-1, 3.17E-02 microM): 45.1%
Relative cell count (%) Mean (CAMA-1; CAMA-1, 3.17E-03 microM): 55.9%
Relative cell count (%) Mean (CAMA-1; CAMA-1, 3.18E-04 microM): 79.7%
Relative cell count (%) Mean (CAMA-1; CAMA-1, 3.18E-05 microM): 96.5%
EC50 (CAMA-1; Homo sapiens, CAMA-1, read-out: Cell Count EC50): 0.491 nM
GI50 (CAMA-1; Homo sapiens, CAMA-1, read-out: Cell Count GI50): 0.647 nM
IC50 (CAMA-1; Homo sapiens, CAMA-1, read-out: Cell Count IC50): 4.34 nM
Cell Count Activity Area (SCaBER): 4.82
Relative cell count (%) Mean (SCaBER; 1.00E+00 microM): 32.7%
Relative cell count (%) Mean (SCaBER; 1.00E-01 microM): 44.5%
Relative cell count (%) Mean (SCaBER; 1.00E-02 microM): 42.2%
Relative cell count (%) Mean (SCaBER; 1.00E-03 microM): 56.1%
Relative cell count (%) Mean (SCaBER; 1.01E-04 microM): 83.1%
Relative cell count (%) Mean (SCaBER; 3.16E-01 microM): 36.3%
Relative cell count (%) Mean (SCaBER; 3.17E-02 microM): 39.5%
Relative cell count (%) Mean (SCaBER; 3.17E-03 microM): 50.7%
Relative cell count (%) Mean (SCaBER; 3.18E-04 microM): 63.5%
Relative cell count (%) Mean (SCaBER; 3.18E-05 microM): 93.1%
EC50 (SCaBER; Homo sapiens, Bladder, summary Table 5, read-out: EC50): 0.25 nM
EC50 (SCaBER; [1]): 0.25 nM
GI50 (SCaBER; [2]): 0.872 nM
IC50 (SCaBER; [3]): 1.59 nM
EC50 (PC-3; Homo sapiens, PC-3, read-out: Cell Count EC50): 0.637 nM
GI50 (PC-3; Homo sapiens, PC-3, read-out: Cell Count GI50): 3.99 nM
IC50 (PC-3; Homo sapiens, PC-3, read-out: Cell Count IC50): 18.4 nM
Cell Count Activity Area (PC-3; PC-3): 3.80
Relative cell count (%) Mean (PC-3; PC-3, 1.00E+00 microM): 42.2%
Relative cell count (%) Mean (PC-3; PC-3, 1.00E-01 microM): 50.3%
Relative cell count (%) Mean (PC-3; PC-3, 1.00E-02 microM): 59.2%
Relative cell count (%) Mean (PC-3; PC-3, 1.00E-03 microM): 70.9%
Relative cell count (%) Mean (PC-3; PC-3, 1.01E-04 microM): 98.3%
Relative cell count (%) Mean (PC-3; PC-3, 3.16E-01 microM): 47.6%
Relative cell count (%) Mean (PC-3; PC-3, 3.17E-02 microM): 50.8%
Relative cell count (%) Mean (PC-3; PC-3, 3.17E-03 microM): 61.5%
Relative cell count (%) Mean (PC-3; PC-3, 3.18E-04 microM): 73.9%
